In PMC3409642 (Pharmaceutical research, 2012):
Like-named read-outs stand apart in the source and are kept apart here.

Tests used:
[1] = molecular target: T1, UGT1A9 (Homo sapiens, UniProt O60656); experiment: in vitro
T1 sequence (O60656 26-530): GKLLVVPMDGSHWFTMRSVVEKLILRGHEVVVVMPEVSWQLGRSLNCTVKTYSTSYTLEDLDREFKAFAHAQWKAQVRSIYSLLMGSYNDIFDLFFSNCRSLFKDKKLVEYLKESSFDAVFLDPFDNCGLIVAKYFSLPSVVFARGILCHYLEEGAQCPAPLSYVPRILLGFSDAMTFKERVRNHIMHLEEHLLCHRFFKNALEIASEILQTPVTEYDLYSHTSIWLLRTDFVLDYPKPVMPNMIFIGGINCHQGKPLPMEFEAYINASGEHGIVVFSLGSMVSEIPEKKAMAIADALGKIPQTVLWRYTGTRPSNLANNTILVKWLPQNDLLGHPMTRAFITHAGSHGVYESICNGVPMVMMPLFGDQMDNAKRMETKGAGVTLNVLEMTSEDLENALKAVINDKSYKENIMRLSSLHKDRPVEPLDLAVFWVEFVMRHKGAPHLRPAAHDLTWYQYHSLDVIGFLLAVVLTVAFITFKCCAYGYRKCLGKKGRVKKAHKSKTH

[2] = molecular target: T1, UGT1A9; experiment: Kinetic profiling of glucuronidation by expressed human UGT1A9; conditions: for Log (CLint) (Actual): log of experimental CLint (μl/mg/min); for Vmax: pH 7.4
[3] = molecular target: T1, UGT1A9; conditions: for Log (CLint) (Actual): recombinant enzyme
[4] = substrate: C=CCc1ccc(O)c(OC)c1; experiment: not read; conditions: pH 7.4; 37.0 °C
[5] = substrate: CN(C)CCc1c[nH]c2cccc(O)c12; experiment: not read; conditions: pH 7.4; 37.0 °C
[6] = substrate: COC(=O)c1ccc(O)cc1; experiment: not read; conditions: pH 7.4; 37.0 °C
[7] = substrate: Cc1ccc2oc(=O)cc(O)c2c1; experiment: not read; conditions: pH 7.4; 37.0 °C
[8] = substrate: Oc1ccc(-c2ccccc2)cc1; experiment: not read; conditions: pH 7.4; 37.0 °C

## O=c1c(O)c(-c2ccccc2)oc2cc(O)cc(O)c12 [85.a, Galangin]
[1]; pH 7.4, Km
  Km: 680 nM
[2]
  Log (CLint) (Actual): 4.04
[2]; listed as 85.b
  Log (CLint) (Actual): 3.68

## Cc1cc(O)c2c(c1)C(=O)c1cc(O)cc(O)c1C2=O [compound 18, Emodin]
[3]; human, pH 7.4
  CLint (Vmax/Km): 1020 µL/mg/min
  Log (CLint) (Actual): 3.01
[1]; pH 7.4, Km
  Km: 2870 nM

## Oc1cccc2ccccc12 [compound 21, Naphthol]
[3]; human, pH 7.4
  CLint (Vmax/Km): 288 µL/mg/min
  Log (CLint) (Actual): 2.46
[2]
  Vmax: 72.1 pmol/mg/min

## O=c1cc(-c2ccccc2)oc2cc(O)c(O)c(O)c12 [compound 51, Baicalein]
[3]; human, pH 7.4
  Log (CLint) (Actual): 3.88
[1]; pH 7.4, Km
  Km: 700 nM

## COc1cc(/C=C/C(=O)O)ccc1O [compound 95, Ferulic Acid]
[3]
  CLint (Vmax/Km): 0.4 µL/mg/min
[3]; human
  Log (CLint) (Actual): 0.30
[3]; pH 7.4
  Km: 884 µM
[2]
  Vmax: 372 pmol/mg/min

## COc1ccc(-c2coc3cc(O)cc(O)c3c2=O)cc1 [compound 100, Biochanin A]
[3]
  CLint (Vmax/Km): 335 µL/mg/min
[3]; human
  Log (CLint) (Actual): 2.53
[3]; pH 7.4
  Km: 1.13 µM

## O=c1c(-c2ccc(O)cc2)coc2cc(O)ccc12 [compound 101, Daidzein]
[3]; human, pH 7.4
  CLint (Vmax/Km): 77 µL/mg/min
  Log (CLint) (Actual): 1.89

## O=C1c2ccc(O)cc2OCC1c1ccc(O)cc1 (centres unmarked) [compound 102, Dihydrodaidzein]
[3]
  CLint (Vmax/Km): 8.1 µL/mg/min
[3]; human
  Log (CLint) (Actual): 0.91
[3]; pH 7.4
  Km: 77.7 µM

## O=c1c(-c2ccc(O)cc2)coc2cc(O)cc(O)c12 [compound 105, Genistein]
[3]; human, pH 7.4
  CLint (Vmax/Km): 617 µL/mg/min
[1]; pH 7.4
  Km: 2090 nM
[2]
  Log (CLint) (Actual): 2.79

## CCCCc1ccc(O)cc1 [compound 110, 4-n-Butylphenol]
[3]; human, pH 7.4
  Log (CLint) (Actual): 1.18
[1]; pH 7.4, Km
  Km: 43100 nM

## CC(C)c1ccc(O)cc1 [compound 117, 4-Isopropylphenol]
[1]; pH 7.4
  Km: 36400 nM
[2]
  Log (CLint) (Actual): 1.78

## Cc1ccc(O)cc1 [compound 119, 4-Methylphenol]
[3]; human, pH 7.4
  Log (CLint) (Actual): 1.39

## Oc1ccc(N=Nc2ccccc2)cc1 [compound 124, 4-Phenylazophenol]
[3]
  CLint (Vmax/Km): 14 µL/mg/min
[3]; human
  Log (CLint) (Actual): 1.15
[3]; pH 7.4
  Km: 82.5 µM

## CCC(C)c1ccc(O)cc1 (centres unmarked) [compound 127, 4-sec-Butylphenol]
[3]; human, pH 7.4
  CLint (Vmax/Km): 37 µL/mg/min
[1]; pH 7.4, Km
  Km: 87500 nM
[2]
  Log (CLint) (Actual): 1.57

## CCOC(=O)c1ccc(O)cc1 [compound 130, Ethyl-4-hydroxybenzoate]
[3]; human, pH 7.4
  Log (CLint) (Actual): 1.61

## C=CCc1ccc(O)c(OC)c1 [compound 131, Eugenol]
[3]; human, pH 7.4
  Log (CLint) (Actual): 1.60

## COC(=O)c1ccc(O)cc1 [compound 132, Methyl-4-hydroxybenzoate]
[3]; human, pH 7.4
  Log (CLint) (Actual): 1.73

## CCCOC(=O)c1ccc(O)cc1 [compound 134, Propyl-4-hydroxybenzoate]
[3]; human, pH 7.4
  Log (CLint) (Actual): 1.48

## CC(C)(c1ccc(O)cc1)c1ccc(O)cc1 [compound 135, Bisphenol A]
[3]; human, pH 7.4
  Log (CLint) (Actual): 1.68

## CN(C)CCc1c[nH]c2cccc(O)c12 [compound 143, Psilocin]
[3]; human, pH 7.4
  Log (CLint) (Actual): 0.90

## CCc1c2c(nc3ccc(O)cc13)-c1cc3c(c(=O)n1C2)COC(=O)[C@]3(O)CC [compound 144, SN-38]
[3]
  CLint (Vmax/Km): 3 µL/mg/min
[3]; human
  Log (CLint) (Actual): 0.44

## C[C@]12CC[C@@H]3c4ccc(O)cc4CC[C@H]3[C@@H]1CC[C@@H]2O [estradiol, reference compound]
[3]
  glucuronide metabolite formation on incubation with UGT1A9 (non-substrate): no metabolite can be detected

B1: human UGT1A9 (Homo sapiens) (protein)
chain: GKLLVVPMDGSHWFTMRSVVEKLILRGHEVVVVMPEVSWQLGRSLNCTVKTYSTSYTLEDLDREFKAFAHAQWKAQVRSIYSLLMGSYNDIFDLFFSNCRSLFKDKKLVEYLKESSFDAVFLDPFDNCGLIVAKYFSLPSVVFARGILCHYLEEGAQCPAPLSYVPRILLGFSDAMTFKERVRNHIMHLEEHLLCHRFFKNALEIASEILQTPVTEYDLYSHTSIWLLRTDFVLDYPKPVMPNMIFIGGINCHQGKPLPMEFEAYINASGEHGIVVFSLGSMVSEIPEKKAMAIADALGKIPQTVLWRYTGTRPSNLANNTILVKWLPQNDLLGHPMTRAFITHAGSHGVYESICNGVPMVMMPLFGDQMDNAKRMETKGAGVTLNVLEMTSEDLENALKAVINDKSYKENIMRLSSLHKDRPVEPLDLAVFWVEFVMRHKGAPHLRPAAHDLTWYQYHSLDVIGFLLAVVLTVAFITFKCCAYGYRKCLGKKGRVKKAHKSKTH
[4]
  Km: 25 µM
  Vmax: 0.001 µmol/min/mg
  Vmax/Km: 40 µL/min/mg
[5]
  Km: 748 µM
  Vmax: 0.00598 µmol/min/mg
  Vmax/Km: 8 µL/min/mg
[6]
  Km: 101 µM
[7]
  Km: 57.8 µM
  Vmax: 0.000225 µmol/min/mg
  Vmax/Km: 4 µL/min/mg
[8]
  Km: 56.2 µM
  Vmax: 0.00124 µmol/min/mg
  Vmax/Km: 22 µL/min/mg
